Test results reported in patent publication US20150087619A1, “METHOD OF MITIGATING VIRUS ASSOCIATED END-ORGAN DAMAGE” (CHIMERIX, INC., priority 2012, published 2015).
“And” between values parts separate entries of the source, which are not always exact repeats. Equal entries are not always repeated. “Also recorded” adds a separate entry of the source.

Assays:
[1] = tested on: CMV; assay: In vitro antiviral activity in cell culture; assay type: cell-based; settings: Human betaherpesvirus 5
[2] = tested on: HHV-6(B); assay: In vitro antiviral activity in cell culture; assay type: cell-based
[3] = tested on: EBV; assay: In vitro antiviral activity in cell culture; assay type: cell-based; settings: human gammaherpesvirus 4
[4] = tested on: HSV-1; assay: In vitro antiviral activity in cell culture; assay type: cell-based; settings: Human alphaherpesvirus 1; HSV-1, cell culture
[5] = Safety in clinical trials; assay type: in vivo, human; settings: extensive clinical trials
[6] = tested on: BKV; assay: Study HDP-CDV-201: hematuria and BKV bladder events; assay type: in vivo, human
Procedure: A multicenter, randomized, double-blind, placebo-controlled, dose-escalation study of safety, tolerability, and ability of HDP-CDV to prevent or control […], and EBV infection and associated disorders was conducted. During enrollment of patients in the study, urine samples of candidate patients were routinely screened for BKV. Plasma was collected from patients who tested positive for BKV viruria in urine, and AdV, EBV and BKV level in the plasma was evaluated.

[7] = tested on: VZV-BAC-Luc strain; assay type: in vivo, mouse
[8] = tested on: VZV; assay: Virus spread in VZV-infected cultures; assay type: cell-based; settings: 1 day of 20 μg/mL in the medium, given on Day −1, 0, 2, or 3
[9] = tested on: JCV; assay: HDP-CDV given to patients with viral infections, virology data; settings: patient, JCV associated PML; 2 mg/kg BIW; initial 398 (CSF) and 557 (urine)
[10] = tested on: EBV; assay: as above; settings: 4 mg/kg BIW
[11] = Phase 1 comparative bioavailability (solution vs tablet) and food effect study; settings: for Plasma HDP-CDV CL/F / Plasma HDP-CDV Tmax / Plasma HDP-CDV AUC0-inf / Plasma HDP-CDV AUC0-last / Plasma HDP-CDV Cmax / Plasma HDP-CDV t1/2: single oral dose; for Plasma HDP-CDV CL/F / Plasma HDP-CDV Tmax / Plasma HDP-CDV AUC0-inf / Plasma HDP-CDV AUC0-last / Plasma HDP-CDV Cmax / Plasma HDP-CDV t1/2 / Plasma Cidofovir CL/F: healthy volunteers; for Plasma HDP-CDV CL/F / Plasma HDP-CDV AUC0-inf / Plasma HDP-CDV AUC0-last / Plasma HDP-CDV Cmax / Plasma HDP-CDV t1/2 / Plasma Cidofovir CL/F: mean; for Plasma HDP-CDV Tmax: median;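 on all read-outs here: plasma levels quantified by validated LC-MS/MS, LLOQ 0.1 ng/mL for HDP-CDV and 0.5 ng/mL for CDV, crossover design with 14-day washout between single doses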
[12] = 40 mg tablet, fed (high fat breakfast)

SMILES: CCCCCCCCCCCCCCCCOCCCOP(=O)(O)COC(CO)Cn1ccc(N)nc1=O (centres unmarked) [HDP-CDV]
- EC50 [1]: 1 nM
- EC50 [2]: 7 nM
- EC50 [3]: 40 nM
- EC50 [4]: 60 nM
- myelosuppression or nephrotoxicity [5]: has not been associated with either myelosuppression or nephrotoxicity
- developed Hem+ during the Study ([6]; BK viruria positive (BKU+) at Baseline, 4 of 77, placebo 33%): 5%
- clinical bladder adverse events related to BKV ([6]; BKU+ subjects at Baseline (6/77), placebo 12.5-13%): 8% and 7.8%
- Hem+ ([6]; BKU− subjects): 4%
- Hem+ vs placebo ([6]; BKV viruria negative (BKU−) at baseline, FIG. 1): no significant difference
- BKV associated adverse bladder events ([6]; HDP-CDV treatment vs placebo): decreased frequency; also recorded: decreased the incidence; also recorded: beneficial effect
- rate of confirmed blood positive urinalyses relative to placebo-treated subjects ([6]; HDP-CDV- compared to placebo-treated): ⅙^th
- Hematuria (Hem+) vs placebo ([6]; HSCT patients with BKV at base line (BKU+), FIG. 1): prevented Hematuria; also recorded: reduces hematuria
- BK-related bladder events (cystitis or blood in urine) ([6]; all HDP-CDV subjects (6/171), placebo 5.1%): 3.5%
- rate of blood positive urinalyses during the treatment period ([6]; all HDP-CDV-treated subjects (8/171), placebo 15.2%): 4.7%
- subjects with BK-related bladder AEs ([6]; received 40 mg QW): 2
- microscopic hematuria ([6]; subjects shedding BKV in their urine): reduction in microscopic hematuria
- BK-related bladder AEs ([6]; subjects who received doses >100 mg QW (4/171)): 2.3%
- difference between pooled HDP-CDV- and placebo-treated groups in rates of confirmed blood positive urinalyses ([6]; subjects with BKV viruria during the treatment period): ~6 fold
- rate of confirmed blood positive urinalyses ([6]; subjects with BKV viruria during the treatment period (4/171), placebo 13.6%): 2.3%
- rate of blood positive urinalyses ([6]; subjects without BK viruria, placebo 1.7%): 2.4%
- viral load (qPCR) ([7]; 1.25, 2.5, and 5.0 mg/kg, 8 doses once daily): dose dependent
- efficacy in vivo ([7]; SCID-Hu mouse model of VZV replication): highly effective
- reduction of virus spread [8]: 2-3 Log10
- JCV viral load in the CSF and urine during treatment [9]: viral load became undetectable (<300 copies/mL
- decrease in EBV levels in blood ([10]; patient 6 months, 6 kg, EBV associated PTLD, four days after starting): There was approximately a 5-fold decrease
- blood EBV viral load after one month of therapy ([10]; patient 22 months, 13.8 kg, from >50,000,000 copies/mL): copies/mL to 100,000 copies/mL over one
- replication of EBV as measured by plasma PCR ([10]; patient, 27 kg, EBV-associated PTLD): There is no evidence of on-going
- Plasma HDP-CDV CL/F ([11]; 40 mg solution, fasted): 77.5 L/h
- Plasma HDP-CDV Tmax ([11]; 40 mg solution, fasted): 2.00 h
- Plasma HDP-CDV AUC0-inf ([11]; 40 mg tablet, fasted): 496 ng·h/mL
- Plasma HDP-CDV AUC0-last ([11]; 40 mg tablet, fasted): 473 ng·h/mL
- Plasma HDP-CDV CL/F ([11]; 40 mg tablet, fasted): 86.1 L/h
- Plasma HDP-CDV Cmax ([11]; 40 mg tablet, fasted): 73.9 ng/mL
- Plasma HDP-CDV t1/2 ([11]; 40 mg tablet, fasted): 7.52 h
- Plasma HDP-CDV Tmax ([11]; 40 mg tablet, fasted): 3.00 h
- Plasma HDP-CDV AUC0-inf [11, 12]: 367 ng·h/mL
- Plasma HDP-CDV AUC0-last [11, 12]: 340 ng·h/mL
- Plasma HDP-CDV CL/F [11, 12]: 119 L/h
- Plasma HDP-CDV Cmax [11, 12]: 39.4 ng/mL
- Plasma HDP-CDV t1/2 [11, 12]: 6.65 h
- Plasma HDP-CDV Tmax [11, 12]: 6.00 h
- food effect on HDP-CDV absorption and bioavailability ([11]; 40 mg tablet, high fat meal vs fasted): reduced peak concentration and delayed Tmax; also recorded: significant food effect
- Plasma Cidofovir CL/F ([11]; after 40 mg HDP-CDV solution, fasted): 40.8 L/h
- Plasma Cidofovir CL/F ([11]; after 40 mg HDP-CDV tablet, fasted): 44.3 L/h
- Plasma Cidofovir CL/F ([11]; after 40 mg HDP-CDV tablet, fed): 46.9 L/h
- food effect on CDV concentrations ([11]; after 40 mg HDP-CDV tablet, high fat meal vs fasted): unaffected by the presence of food; also recorded: no food effect
- HDP-CDV Ln(AUCinf) Test Geometric LSM ([11]; fed tablet (test), TOST): 343.5310 ng·h/mL
- HDP-CDV Ln(AUClast) Test Geometric LSM ([11]; fed tablet (test), TOST): 323.8453 ng·h/mL
- HDP-CDV Ln(Cmax) Test Geometric LSM ([11]; fed tablet (test), TOST): 37.0360 ng/mL
- HDP-CDV Ln(AUCinf) Ratio [% Ref] ([11]; in vivo): 72.17 % Ref
- HDP-CDV Ln(AUClast) Ratio [% Ref] ([11]; in vivo): 70.89 % Ref
- HDP-CDV Ln(Cmax) Ratio [% Ref] ([11]; in vivo): 52.56 % Ref
- absorption following a single oral administration ([11]; solution and tablet formulation, 40 mg): readily absorbed
